Results reported in patent publication US20120202288A1, “COMPOSITIONS COMPRISING CYCLIC AMP ENHANCERS AND/OR EP LIGANDS, AND METHODS OF PREPARING AND USING THE SAME” (FATE THERAPEUTICS, INC., priority 2009, published 2012).
Like-named read-outs stand apart in the source and are kept apart here.

How the values were obtained:
[1] = tested on: hematopoietic stem cells (HSCs); assay: Ex vivo treatment of HSCs prior to transplant, engraftment of donor HSCs; assay type: in vivo; details: bone marrow cells incubated with 10 μM at 4° C. for one hour, then transplanted into allogeneic subject
Description: Bone marrow cells containing HSCs are obtained directly by removal from the hip of a donor subject using a needle and syringe. The heterogeneous mixture of bone marrow cells is transferred to two separate tissue culture flasks, and a suitable growth medium is provided.
262 μl of a 10 mM solution of 16,16-dimethyl PGE2 in DMSO is added to the cells in the first tissue culture flask, to a final working concentration of 10 μM of 16,16-dimethyl PGE2. The same amount of DMSO without agent is added to the second flask as a control, and the cells in both flasks are incubated at 4° C. (e.g., in an ice bath) for one hour. The 16,16-dimethyl PGE2 is at least 90% pure as measured by HPLC, and is produced by good manufacturing practice (GMP).
After incubation of the HSCs in the ice bath, the cells from each flask are administered to separate, but otherwise genetically identical subjects. These subjects are both allogeneic to the donor cells. The subjects are then observed for engraftment of the donor HSCs, using markers that are specific for the donor cells.

[2] = Stability of 16,16-dimethyl PGE2 formulation, storage at −20° C.; assay type: physicochemical; details: for Assay (% LC): 10 mM in DMSO, 2 ml glass vial; for Purity (%): stability
Description: (§1) 16,16-dimethyl PGE2 and its related substances were separated on a Phenomenex, Synergi Hydro RP 4μ HPLC column with gradient elution conditions and detected at 205 nm. The assay of 16,16-dimethyl PGE2 was determined by comparing the 16,16-dimethyl PGE2 peak area of the test samples with that of a reference standard of known concentration and purity. The levels of the impurities and degradation products were determined from the peak area ratio of each individual impurity to the total peak area of the 16,16-dimethyl PGE2 and all impurities and degradation products. The identify of 16,16-dimethyl PGE2 was confirmed by comparing the retention time of the main peak of the test sample against that in the reference standard.
(§2) Stability tests were performed on formulations of 16,16-dimethyl PGE2 stored at either −80° C. or −20° C. for up to six months. These clinical formulations were composed of 10 mM 16,16-dimethyl PGE2 in […] DMSO, and were stored in a 2 ml Type I clear glass vial with a 13 mm West 4432/50 Teflon coated stopper. The results are shown in Tables 3 (−80° C.) and 4 (−20° C.) below.

[3] = Stability of 16,16-dimethyl PGE2 formulation, storage at −80° C.; assay type: physicochemical; details: for Assay (% LC): 10 mM in DMSO, 2 ml glass vial; for Purity (%): stability
Description: as §1, §2

[4] = tested on: human umbilical cord-derived CD34+ cells; details: apoptosis induced by nitric oxide (NO) or serum deprivation; cited from earlier work
[5] = cited from earlier work
dendritic cell (DC) = details: ex vivo or in vitro; withdrawal of growth factors or ceramide; cited from earlier work
hepatic stellate cells = details: cited from earlier work
[6] = tested on: murine embryonic stem cell; details: cited from earlier work
transplanted stem cells = details: injection shortly after marrow cell graft; cited from earlier work

CCCCC(C)(C)[C@H](O)/C=C/[C@H]1[C@H](O)CC(=O)[C@@H]1C/C=C\CCCC(=O)O [16,16-dimethyl PGE2]
number of engrafted HSC donor cells versus control-treated cells [1]: significantly greater number of engrafted HSC donor cells
Assay (% LC) ([2]; 1 Month): 98.7 % LC
Assay (% LC) ([2]; 2 Months): 97.4 % LC
Assay (% LC) ([2]; 3 Months): 98.8 % LC
Assay (% LC) ([2]; 6 Months): 97.5 % LC
Assay (% LC) ([2]; Time Zero): 98.1 % LC
Product Appearance ([2]; 1 Month): conforms
Total Related Substances (%) ([2]; 1 Month): 5.22%
pH ([2]; 1 Month): 4.8
Product Appearance ([2]; 2 Months): conforms
Total Related Substances (%) ([2]; 2 Months): 5.52%
pH ([2]; 2 Months): 4.7
Product Appearance ([2]; 3 Months): conforms
Total Related Substances (%) ([2]; 3 Months): 5.54%
pH ([2]; 3 Months): 4.6
Product Appearance ([2]; 6 Months): conforms
Total Related Substances (%) ([2]; 6 Months): 5.95%
pH ([2]; 6 Months): 4.6
Product Appearance ([2]; Time Zero): conforms
Total Related Substances (%) ([2]; Time Zero): 5.52%
pH ([2]; Time Zero): 4.5
Purity (%) ([2]; 1 Month): 94.8%
Purity (%) ([2]; 2 Months): 94.5%
Purity (%) ([2]; 3 Months): 94.5%
Purity (%) ([2]; 6 Months): 94.0%
Purity (%) ([2]; Time Zero): 94.5%
Assay (% LC) ([3]; 1 Month): 98.5 % LC
Assay (% LC) ([3]; 2 Months): 97.7 % LC
Assay (% LC) ([3]; 3 Months): 98.5 % LC
Assay (% LC) ([3]; 6 Months): 98.6 % LC
Assay (% LC) ([3]; Time Zero): 98.1 % LC
Product Appearance ([3]; 1 Month): conforms
Total Related Substances (%) ([3]; 1 Month): 5.33%
pH ([3]; 1 Month): 4.8
Product Appearance ([3]; 2 Months): conforms
Total Related Substances (%) ([3]; 2 Months): 5.51%
pH ([3]; 2 Months): 4.7
Product Appearance ([3]; 3 Months): conforms
Total Related Substances (%) ([3]; 3 Months): 5.35%
pH ([3]; 3 Months): 4.8
Product Appearance ([3]; 6 Months): conforms
Total Related Substances (%) ([3]; 6 Months): 5.51%
pH ([3]; 6 Months): 4.7
Product Appearance ([3]; Time Zero): conforms
Total Related Substances (%) ([3]; Time Zero): 5.52%
pH ([3]; Time Zero): 4.5
Purity (%) ([3]; 1 Month): 94.7%
Purity (%) ([3]; 2 Months): 94.5%
Purity (%) ([3]; 3 Months): 94.7%
Purity (%) ([3]; 6 Months): 94.5%
Purity (%) ([3]; Time Zero): 94.5%

O[C@@H]1[C@@H]2OP(O)(=S)OC[C@H]2O[C@H]1n1cnc2cc(Cl)c(Cl)cc21 (stereo partly drawn) [BIMPS, sp-5,6-DCl-BIMPS]
survival of CD34+ cells [4]: promote survival

CCCCC[C@@H](/C=C/[C@H]1[C@H](OC)CC(=O)[C@@H]1C/C=C\CCCC(=O)O)OC [ONO-AE-248]
effect on core temperature (Tc) ([5]; 20 nmol): increased the Tc

CCCC[C@H](C)C[C@H](O)/C=C/[C@H]1[C@H](O)CC(=O)[C@@H]1CC(=O)C1CCC(C(=O)O)CC1 (stereo partly drawn) [ONO-DI-004]
effect on core temperature (Tc) ([5]; in vivo): increase the core temperature (Tc) in a dose-dependent manner

CCCCC[C@H](O)/C=C/[C@H]1[C@H](O)CC(=O)[C@@H]1C/C=C\CCCC(=O)O [PGE2, Prostaglandin E2]
protection of DC against apoptosis (dendritic cell (DC)): protects DC
mitogenesis of hepatic stellate cells (hepatic stellate cells): inhibits the mitogenesis
amplification of multipotent progenitors [6]: cause amplification of multipotent progenitors

CCCC(=O)Nc1ncnc2c1ncn2[C@@H]1O[C@@H]2COP(=O)(O)O[C@H]2[C@H]1OC(=O)CCC [dibutyryl-cAMP, dibutyryl cyclic adenosine 3′,5′-monophosphate]
survival of CD34+ cells [4]: promote survival
entry of transplanted stem cells into S phase (transplanted stem cells): triggers the transplanted stem cells into entering S phase

CC(C)NCC(O)c1ccc(O)c(O)c1 (stereo not drawn) [isoproterenol]
entry of transplanted stem cells into S phase (transplanted stem cells): triggers the transplanted stem cells into entering S phase
